From patent publication US20250090437A1, “COSMETIC COMPOUNDING AGENT, COSMETIC AND PRODUCTION METHOD THEREOF” (MIYOSHI OIL & FAT CO., LTD., priority 2019, published 2025) come the findings set out here.

Series [1] can be described thus: Water retention property and adherability with respect to healthy hair. Details: species or system human. Conditions: for Compound adhesion rate / Post-test moisture rate: healthy hair immersed 60 min in 80 wt % aqueous solution; for Post-test moisture rate: after 24 hours at 40° C., pre-test 7.6%; for Post-test moisture rate / Rate of reduction in moisture: 35 to 40% RH; for Rate of reduction in moisture: healthy hair, 80 wt % aqueous solution, 24 hours at 40° C. The procedure: In the following evaluations, a human black hair produced by Beaulax Co., Ltd was used as a healthy hair. A damaged hair was prepared by repeatedly having the healthy hair permed and bleached three times.
An 80 wt % aqueous solution of each of the compounds B1 to B26 (content in terms of anhydride in the cases of the compounds B1 to B23) was prepared, followed by using a Karl Fischer moisture meter (KF-200 by Mitsubishi Chemical Analytech Co., Ltd.) to confirm that a moisture rate was 20.0 wt %. As a healthy hair, there was used a chemically untreated healthy hair (human black hair by Beaulax Co., Ltd). The moisture rate (pre-test moisture rate A) of the hair was measured by an infrared moisture meter (by Kett Electric Laboratory).
After immersion, the hair was taken out, and KimWipes were then used to wipe off the compound until a change in weight was no longer observed, followed by measuring the weight of the hair (post-test hair weight B). The hair from which the compound had been wiped off was then placed into a thermo-hygrostat set to 40° C. and 35 to 40% RH. A moisture rate after 24 hours (post-test moisture rate B) was then measured, followed by calculating a rate of reduction in moisture with the following formula. Likewise, instead of the 80 wt % aqueous solution, evaluation was also performed in a similar manner using only an ion-exchange water (comparative example B4).
Further, an adhesion rate of the compound adhering to the hair was calculated with the following formula. […]

Series [2] in a line: Water retention property test 3 (long term). The conditions noted are these: for Amount of moisture reduction in 0 to 24 h / Amount of moisture reduction in 24 to 96 h / Amount of moisture reduction per hour / Pre-test moisture rate / Moisture rate after 24 h / Moisture rate after 96 h / Amount of moisture reduction in 96 to 120 h / Moisture rate after 120 h: 80 wt % aqueous solution; for Amount of moisture reduction in 0 to 24 h / Amount of moisture reduction in 24 to 96 h / Amount of moisture reduction in 96 to 120 h: 1.0 g; for Amount of moisture reduction in 0 to 24 h / Amount of moisture reduction in 24 to 96 h / Amount of moisture reduction per hour / Moisture rate after 24 h / Moisture rate after 96 h / Amount of moisture reduction in 96 to 120 h / Moisture rate after 120 h: 40° C. and 25% RH; for Pre-test moisture rate: before the test; for Moisture rate after 24 h / Moisture rate after 96 h / Moisture rate after 120 h: unsealed. It is filed as physicochemical. The procedure: In a water retention property test 3, an 80 wt % aqueous solution of each of the compounds C8, C11, C62, C63 and C64 was prepared, followed by using a Karl Fischer moisture meter to confirm that a moisture rate was 20.0 wt %. Next, 1.0 g of each of these samples was added to a screw tube, and this screw tube, while remaining unsealed, was then left to stand still in a thermo-hygrostat set to 40° C. and 25% RH. […] In addition, the water retention property was evaluated by calculating an amount of moisture reduction per hour (mg/h) based on each amount of moisture reduction (mg).

The nature of series [3]: Water retention property test 1. In kind it is physicochemical. Conditions: 80 wt % aqueous solution; for Water retention property test 1 Post-test moisture rate / Water retention property test 1 Rate of reduction in moisture / Post-test moisture rate / Rate of reduction in moisture: 24 hours at 40° C. and 25% RH; for Pre-test moisture rate: before the test (Karl Fischer); for Post-test moisture rate / Rate of reduction in moisture: unsealed. The protocol:
A moisture rate after 24 hours was again measured (post-test moisture rate: B), followed by using the formula below to calculate a rate of reduction in moisture so as to evaluate the water retention property. • Pre-test moisture rate: A (%) • Post-test moisture rate: B (%)

In the case of `NC(CO)(CO)CO.O=C(O)CO` [Compound B14], in series [1], the Compound adhesion rate is listed as 1.3%, the Post-test moisture rate is given as 7.4% and the “Rate of reduction in moisture” value came out at 3%.

Consider `NC(CO)(CO)CO.O=C(O)CC(O)(CC(=O)O)C(=O)O` [Compound B13], for which, in series [1], the Compound adhesion rate turned out to be 2.3%, the Post-test moisture rate was 6.5% and the “Rate of reduction in moisture” value worked out at 15%.

As for `CCCC[N+](CCCC)(CCCC)CCCC.[Br-]` [Comparative example C13], in series [2] (0~24 h), the “Amount of moisture reduction in 0 to 24 h” value came to 49.1 mg and the “Amount of moisture reduction per hour” value worked out at 2.0 mg/h. For the same compound, in series [2] (24~96 h), the “Amount of moisture reduction in 24 to 96 h” value turned out to be 145.8 mg and the “Amount of moisture reduction per hour” value was determined as 2.0 mg/h. In addition, in series [2], the Pre-test moisture rate is on record as 20.0%, the “Moisture rate after 24 h” value was determined as 15.9% and the “Moisture rate after 96 h” value is on record as 0.7%.

As for `CCCCn1cc[n+](C)c1.F[B-](F)(F)F` [Comparative example C14], in series [2] (0~24 h), the “Amount of moisture reduction in 0 to 24 h” value was 64.3 mg and the “Amount of moisture reduction per hour” value was 2.7 mg/h. Besides, the “Amount of moisture reduction in 24 to 96 h” value in series [2] (24~96 h) worked out at 134.4 mg. In series [2], the Pre-test moisture rate was 20.0%, the “Moisture rate after 24 h” value is reported as 14.5% and the “Moisture rate after 96 h” value was 0.0%.

On to `CC(O)C(=O)O.NCCO` (stereo not drawn) [Compound C1], for which, in series [3], the “Water retention property test 1 Pre-test moisture rate” value was 20.0%, the “Water retention property test 1 Post-test moisture rate” value came to 19.3% and the “Water retention property test 1 Rate of reduction in moisture” value came to 3.5%.

Regarding `CC(=O)OCC[N+](C)(C)C.O=C1O[C@H]([C@@H](O)CO)C([O-])=C1O` [Compound C59], in series [3], the Pre-test moisture rate stood at 20.0%, the Post-test moisture rate is 19.3% and the “Rate of reduction in moisture” value was found to be 3.5%.

For the compound `C[N+](C)(C)CCO.O=C([O-])CO` [Compound C28], in series [3], the “Water retention property test 1 Pre-test moisture rate” value is given as 20.0%, the “Water retention property test 1 Post-test moisture rate” value was determined as 19.4% and the “Water retention property test 1 Rate of reduction in moisture” value is 3.0%.

Consider `C[N+](C)(C)CCO.O=C([O-])C=CC(=O)O` [Compound C30], for which, in series [3], the “Water retention property test 1 Pre-test moisture rate” value is on record as 20.0%, the “Water retention property test 1 Post-test moisture rate” value was 19.0% and the “Water retention property test 1 Rate of reduction in moisture” value amounted to 5.5%.

For `NCCO.O=C1OC(C(O)CO)C(O)=C1O` (stereo not drawn) [Compound C40], in series [3], the “Water retention property test 1 Pre-test moisture rate” value was found to be 20.0%, the “Water retention property test 1 Post-test moisture rate” value amounted to 19.5% and the “Water retention property test 1 Rate of reduction in moisture” value amounted to 2.3%.

For the compound `CC(O)C(=O)O.NC(CO)CO` (stereo not drawn) [Working example C117], in series [2] (0~24 h), the “Amount of moisture reduction in 0 to 24 h” value was 6.7 mg and the “Amount of moisture reduction per hour” value is on record as 0.3 mg/h. For the same compound, in series [2] (24~96 h), the “Amount of moisture reduction in 24 to 96 h” value is on record as 20.1 mg and the “Amount of moisture reduction per hour” value is 0.3 mg/h. In series [2] (96~120 h), the “Amount of moisture reduction in 96 to 120 h” value was 4.0 mg and the “Amount of moisture reduction per hour” value is recorded as 0.2 mg/h. For the same compound, in series [2], the Pre-test moisture rate was found to be 20.0%, the “Moisture rate after 24 h” value is 19.5%, the “Moisture rate after 96 h” value was 17.8% and the “Moisture rate after 120 h” value amounted to 15.8%. Besides, in series [2], the “Moisture rate of hydrate” value came to 16.6%.

As for `C[N+](C)(C)CCO.O=C1OC(C(O)CO)C([O-])=C1O` (stereo not drawn) [Compound C57], in series [3], the Pre-test moisture rate came to 20.0%, the Post-test moisture rate is 19.0% and the “Rate of reduction in moisture” value was determined as 5.0%.

In the case of `CC(C)(C)CO` [Compound C44], in series [3], the “Water retention property test 1 Pre-test moisture rate” value amounted to 20.0%, the “Water retention property test 1 Post-test moisture rate” value is on record as 19.2% and the “Water retention property test 1 Rate of reduction in moisture” value is 4.7%.

In the case of `C[N+](C)(C)CCO.O=C([O-])CCC(=O)O` [Compound C31], in series [3], the “Water retention property test 1 Pre-test moisture rate” value is 20.0%, the “Water retention property test 1 Post-test moisture rate” value is 19.0% and the “Water retention property test 1 Rate of reduction in moisture” value stood at 5.5%.

Consider `CC[N+](C)(C)CCO.CS(=O)(=O)[O-]` [Compound C36], for which, in series [3], the “Water retention property test 1 Pre-test moisture rate” value is listed as 20.0%, the “Water retention property test 1 Post-test moisture rate” value is 19.6% and the “Water retention property test 1 Rate of reduction in moisture” value came to 2.0%.

In the case of `C[N+](C)(CCO)CC(O)C[N+](C)(C)CCO.[Cl-].[Cl-]` [Compound C38], in series [3], the “Water retention property test 1 Pre-test moisture rate” value was determined as 20.0%, the “Water retention property test 1 Post-test moisture rate” value worked out at 18.1% and the “Water retention property test 1 Rate of reduction in moisture” value was determined as 9.5%.

In the case of `OCC(O)CO` [Comparative example C15], in series [2] (0~24 h), the “Amount of moisture reduction in 0 to 24 h” value is listed as 24.6 mg and the “Amount of moisture reduction per hour” value was 1.0 mg/h. In series [2] (24~96 h), the “Amount of moisture reduction in 24 to 96 h” value turned out to be 74.8 mg and the “Amount of moisture reduction per hour” value was 1.0 mg/h. Further, in series [2] (96~120 h), the “Amount of moisture reduction in 96 to 120 h” value is 25.0 mg and the “Amount of moisture reduction per hour” value was found to be 1.0 mg/h. Moreover, in series [2], the Pre-test moisture rate was found to be 20.0%, the “Moisture rate after 24 h” value turned out to be 18.0%, the “Moisture rate after 96 h” value is on record as 11.1% and the “Moisture rate after 120 h” value is 8.6%.

Turning to `CC(O)C(=O)O.NCCCCCC(=O)O` [Compound C61], in series [3], the Pre-test moisture rate worked out at 20.0%, the Post-test moisture rate amounted to 18.1% and the “Rate of reduction in moisture” value was 9.9%.

With `CCC(C)(CO)CO` [Compound C48], in series [3], the “Water retention property test 1 Pre-test moisture rate” value is on record as 20.0%, the “Water retention property test 1 Post-test moisture rate” value was 19.4% and the “Water retention property test 1 Rate of reduction in moisture” value is on record as 2.9%.

As to `CC(O)C(=O)[O-].CCC(CO)(CO)[N+](CC(O)CO)(CC(O)CO)CC(O)CO` (stereo not drawn) [Compound C25], in series [3], the “Water retention property test 1 Pre-test moisture rate” value came out at 20.0%, the “Water retention property test 1 Post-test moisture rate” value is listed as 19.0% and the “Water retention property test 1 Rate of reduction in moisture” value is 5.0%.

For `CC(O)C(=O)O.N` (stereo not drawn) [Compound C24], in series [3], the “Water retention property test 1 Pre-test moisture rate” value came out at 20.0%, the “Water retention property test 1 Post-test moisture rate” value is given as 19.0% and the “Water retention property test 1 Rate of reduction in moisture” value is given as 4.9%.

In the case of `CS(=O)(=O)[O-].C[N+](C)(C)CCO` [Compound C32], in series [3], the “Water retention property test 1 Pre-test moisture rate” value is 20.0%, the “Water retention property test 1 Post-test moisture rate” value came to 19.6% and the “Water retention property test 1 Rate of reduction in moisture” value was determined as 2.2%.

With `C[N+](C)(CCO)CC(O)CO.[Cl-]` (stereo not drawn) [Compound C37], in series [3], the “Water retention property test 1 Pre-test moisture rate” value is recorded as 20.0%, the “Water retention property test 1 Post-test moisture rate” value came to 18.3% and the “Water retention property test 1 Rate of reduction in moisture” value worked out at 8.3%.

Turning to `CC(O)C(=O)O.OCCNCCO` [Compound C2], in series [3], the “Water retention property test 1 Pre-test moisture rate” value came out at 20.0%, the “Water retention property test 1 Post-test moisture rate” value worked out at 19.0% and the “Water retention property test 1 Rate of reduction in moisture” value was determined as 4.8%.

Turning to `CS(=O)(=O)O.NC(CO)CO` [Working example C118], in series [2] (0~24 h), the “Amount of moisture reduction in 0 to 24 h” value was 6.5 mg and the “Amount of moisture reduction per hour” value is reported as 0.3 mg/h. Besides, in series [2] (24~96 h), the “Amount of moisture reduction in 24 to 96 h” value came out at 20.0 mg and the “Amount of moisture reduction per hour” value worked out at 0.3 mg/h. In addition, in series [2] (96~120 h), the “Amount of moisture reduction in 96 to 120 h” value is listed as 4.1 mg and the “Amount of moisture reduction per hour” value is 0.2 mg/h. In addition, in series [2], the Pre-test moisture rate is 20.0%, the “Moisture rate after 24 h” value was 19.4%, the “Moisture rate after 96 h” value is recorded as 17.6% and the “Moisture rate after 120 h” value amounted to 15.4%. Besides, in series [2], the “Moisture rate of hydrate” value amounted to 16.1%.

With `CS(=O)(=O)O.NC(CO)(CO)CO` [Compound C22], in series [3], the “Water retention property test 1 Pre-test moisture rate” value is 20.0%, the “Water retention property test 1 Post-test moisture rate” value was determined as 19.8% and the “Water retention property test 1 Rate of reduction in moisture” value amounted to 1.2%.
